Assay type in all cases: in vivo, mouse
One data set deals with stroke in Cryab−/− mice. Put plainly: Cerebral ischemia (middle cerebral artery occlusion) in Cryab−/− mice, lesion size by silver stain. To be noted: IP 1 h before stroke, 12 h, 24 h and daily for seven days, vs PBS treated Cryab−/−. As for the experimental part: To test if increased plasma Cryab after stroke was beneficial, Cryab^−/− mice were given intraperitoneal injections of recombinant Cryab protein starting 1 h before stroke onset and continuing at 12 h, 24 h and daily afterwards for seven days in total.
Induction of cerebral ischemia. We used 12 to 14-week-old, male mice weighing 25-30 g. The weights of the animals in all experimental groups were similar. We used filament occlusion model of cerebral ischemia as described. Briefly, mice were anesthetized with 2% isoflurane in a mixture of 20% oxygen and 80% air. After the surgical exposure, the left external and common carotid arteries were permanently ligated. Then, a 7-0 mm, silicon rubber-coated, reusable monofilament (Doccol Inc, 70SPRe2045) was inserted into the left common carotid artery and advanced towards the left internal carotid artery 9-10 mm after the left carotid bifurcation. The core body temperature was checked by a rectal probe and maintained at 37° C. throughout the surgery by a heating pad and lamp. The cerebral blood flow was measured by a laser Doppler flow-meter and at least 80% reduction compared to presurgical baseline values was achieved after the insertion of the filament. The flowmeter probe was placed 2 mm posterior and 5-6 mm lateral to the bregma on the skull. The reperfusion was achieved by withdrawal of the filament 30 min after the insertion. […]

The test system of another data set is mice with EAE. The data set is described as follows: EAE in C57BL/6J mice (MOG35-55/CFA, pertussis toxin), neurological impairment scoring. The procedure:
It was tested if the chaperone function of residues 73-92 of HspB5 were capable of reducing the symptoms of experimental allergic encephalomyelist (EAE), by inducing EAE in 9-week old female C57BL/6J by immunized subcutaneously with an emulsion containing 200 μg myelin oligodendrocyte glycoprotein 35-55 (MOG35-55; […] (SEQ ID NO:24)) in saline and an equal volume of complete Freund's adjuvant. Intraperitoneal injection of pertussis toxin at 0 and 48 h post-immunization results in paralysis beginning at day 12.

Another data set deals with stroke in wild-type mice. Put plainly: Cerebral ischemia (30 min middle cerebral artery filament occlusion) in wild-type mice, lesion size. To be noted: vs PBS. The procedure:
Because the restoration of plasma Cryab in Cryab^−/− mice decreased the lesion size, we next investigated whether administration of Cryab into wild-type mice would have a similar effect. When Cryab was administered beginning 1 h before stroke onset and then at 12 hrs after, the lesion size at 2 d was not different between PBS and Cryab treated wild-type mice groups (FIG. 14a).
Induction of cerebral ischemia. We used 12 to 14-week-old, male mice weighing 25-30 g. The weights of the animals in all experimental groups were similar. We used filament occlusion model of cerebral ischemia as described. Briefly, mice were anesthetized with 2% isoflurane in a mixture of 20% oxygen and 80% air. After the surgical exposure, the left external and common carotid arteries were permanently ligated. Then, a 7-0 mm, silicon rubber-coated, reusable monofilament (Doccol Inc, 70SPRe2045) was inserted into the left common carotid artery and advanced towards the left internal carotid artery 9-10 mm after the left carotid bifurcation. The core body temperature was checked by a rectal probe and maintained at 37° C. throughout the surgery by a heating pad and lamp. The cerebral blood flow was measured by a laser Doppler flow-meter and at least 80% reduction compared to presurgical baseline values was achieved after the insertion of the filament. The flowmeter probe was placed 2 mm posterior and 5-6 mm lateral to the bregma on the skull. The reperfusion was achieved by withdrawal of the filament 30 min after the insertion. After the closure of the surgical wound and the mice were returned to their cages with free access to water and food.

“Also recorded” adds a separate entry of the source.

Turning to αB-crystallin [HSPB5], the “lesion size at 7 d after stroke” value in the data set on stroke in Cryab−/− mice is given as “significantly decreased; also recorded: confers neuroprotection”. Also, the “clinical paralysis / clinical scores of mice with EAE” value with mice with EAE (intraperitoneal 10-50 μg every other day starting at the peak of disease) is reported as “significant reduction of clinical paralysis”. In the data set on mice with EAE (intravenous administration), the “symptoms of EAE” value is on record as “dramatic reduction of symptoms”. In the data set with mice with EAE (mouse, in vivo), the “symptoms after cessation of the administration” value is “returned soon after cessation”. Moreover, the “blood pressure, pulse rate, plasma glucose and lactate levels and arterial blood gas analysis” value with stroke in wild-type mice (before, during or after cerebral ischemia) was “no differences”. Also, the “lesion size at 2 d after stroke (TTC staining)” value with stroke in wild-type mice (wild-type mice, given 1 h before stroke onset and 12 hrs after) was “not different”. The “lesion size at 7 d after stroke (silver stain)” value in the data set with stroke in wild-type mice (wild-type mice, given 1 h before, 12 h, 24 h after and daily for seven days) is “significantly reduced”; with stroke in wild-type mice (wild-type mice, initial treatment 12 h after stroke onset, listed as Cryab), “reduced stroke pathology; also recorded: conferred neuroprotection”.

The record behind these values is patent US10034915B2, “Small heat shock proteins and active fragments thereof as a therapy for inflammation and ischemia” (The Board of Trustees of the Leland Stanford Junior …, priority 2011, dated 2018).
